Test results published in patent publication US10030027B2, “Soluble guanylate cyclase stimulators” (MERCK SHARP & DOHME CORP., priority 2015, dated 2018).

Key:
sGC α1/β1 heterodimer = sGC α1/β1 heterodimer (Homo sapiens (Human), UniProt Q02108+Q02153); assay: Cell-based sGC functional assay (cyclic GMP assay for sGC activator: CASA assay); parameters: % Activation: concentration or dose not given beside the values; settings: CHO-K1/sGC cells; for Emax: CHO-K1, activity expressed as percentage of compound A (standard), read-out: % Activation; for EC50: inflection point, 4P fit, read-out: IP
In short: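 CHO-K1 cells stably expressing human sGC α1/β1 were pre-incubated 30 min at 25° C with or without 1 μM DETA-NO, then exposed to compound for 1 hr at 37° C with 0.5 mM IBMX and 2.5% DMSO final. Intracellular cGMP was measured by HTRF, expressed as % of reference sGC-HDA maximum; inflection point and maximum fold induction came from 4-parameter fits.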

[1] = biological target: human recombinant sGC enzyme (Homo sapiens (Human), UniProt Q02108+Q02153); assay: Size Exclusion Chromatography (SEC) competition binding assay using [3H] Ex-77B as the radioligand; settings: [3H] Ex-77B radioligand, 24 hours at 37° C.
Description: Binding Assay: The binding potencies of sGC compounds to the human recombinant sGC enzyme were determined in a Size Exclusion Chromatography (SEC) competition binding assay using [^3H] Ex-77B as the radioligand. [^3H] Ex-77B was prepared using a standardardized tritium exchange procedure. The parent (non-labeled) molecule was first iodinated then a Pd-catalyzed iodine to tritium exchange provided the labeled compound. […] Assays were conducted in 96-well plates in a total volume of 200 μL. […] Non-specific binding was defined by competition with 1 μM of Ex-77B. After the incubation period, the binding mixtures were loaded onto the gel-filtration plate (ThermoFischer Cat. No. 89808) pre-equilibrated with binding buffer and spun at 1000×g for 3 min at 4° C. on a Bench top centrifuge. The collected eluates in White Frame Clear Well Isoplates (Perkin Elmer Cat #6005040) received 100 μl of UltimaGold scintillation cocktail. The sealed plates were shaken vigorously and span, and counted after 6 hours with a Wallac Microbeta TriLux 1450 LSC & Luminescence Counter (Perkin Elmer). Data from competition experiments were analyzed to determine Ki values using one site fit Ki equation.

Structure (SMILES) | Emax (sGC α1/β1 heterodimer) | EC50 (sGC α1/β1 heterodimer) | Ki [1] | % Activation (sGC α1/β1 heterodimer; activity expressed as percentage of compound A (standard))
C[C@@]1(c2ccc(CCC(=O)O)cc2)C(=O)Nc2nc(-c3nn(Cc4c(F)cccc4F)c4cc(Cl)ccc34)nc(N)c21 (single isomer, unassigned) [Example 64B] | 101% | 302 nM | 0.075 nM | 
CC1(c2cn(CC(=O)O)nn2)C(=O)Nc2nc(-c3nn(CCC(F)(F)C(F)(F)F)c4cc(Cl)ccc34)nc(N)c21 (centres unmarked) [Example 28B, (4-{4-amino-2-[6-chloro-1-(3,3,4,4,4-pentafluorobutyl)-1H-indazol-3-yl]-5-methyl-6-oxo-6,7-dihydro-5H-pyrrolo[2,3-d]pyrimidin-5-yl}-1H-1,2,3-triazol-1-yl)acetic acid] | 105% | 2170 nM | 0.536 nM | 
CC(C)(Cc1ccc(C2(C)C(=O)Nc3nc(-c4nn(Cc5ccccc5F)c5cc(Cl)ccc45)nc(N)c32)nc1)C(=O)O (centres unmarked) [Example 131B, 3-(6-{4-amino-2-[6-chloro-1-(2-fluorobenzyl)-1H-indazol-3-yl]-5-methyl-6-oxo-6,7-dihydro-5H-pyrrolo[2,3-d]pyrimidin-5-yl}pyridin-3-yl)-2,2-dimethylpropanoic acid] | 120% | 1060 nM | 0.125 nM | 
CC(C)(Cc1coc(C2(C)C(=O)Nc3nc(-c4nn(Cc5ccc(F)cc5F)c5cc(Cl)ccc45)nc(N)c32)n1)C(=O)O (centres unmarked) [Example 178A, 3-(2-{4-amino-2-[6-chloro-1-(2,4-difluorobenzyl)-1H-indazol-3-yl]-5-methyl-6-oxo-6,7-dihydro-5H-pyrrolo[2,3-d]pyrimidin-5-yl}-1,3-oxazol-4-yl)-2,2-dimethyl-propanoic acid] | 124% | 429 nM | 0.116 nM | 
CC(C)(Cc1ccc(C2(C)C(=O)Nc3nc(-c4nn(CCCC(F)(F)F)c5ncccc45)nc(N)c32)cc1)C(=O)O (centres unmarked) [Example 16B, 3-(4-{4-amino-5-methyl-6-oxo-2-[1-(4,4,4-trifluorobutyl)-1H-pyrazolo[3,4-b]pyridin-3-yl]-6,7-dihydro-5H-pyrrolo[2,3-d]pyrimidin-5-yl}phenyl)-2,2-dimethylpropanoic acid] | 96% | 1470 nM | 1.14 nM | 
Cc1cccc(Cn2nc(-c3nc(N)c4c(n3)NC(=O)[C@@]4(C)c3ccc(CCC(=O)O)cc3)c3ccc(Cl)cc32)c1 [Example 66B, (S)-3-(4-{4-amino-2-[6-chloro-1-(3-methylbenzyl)-1H-indazol-3-yl]-5-methyl-6-oxo-6,7-dihydro-5H-pyrrolo[2,3-d]pyrimidin-5-yl}phenyl)propanoic acid] | 107% | 238 nM | 0.495 nM | 
Nc1nc(-c2nn(CCC(F)(F)C(F)(F)F)c3cc(Cl)ccc23)nc2c1C(c1ccc(CCC(=O)O)cc1)(C1CC1)C(=O)N2 (centres unmarked) [Example 158A, 3-(4-{4-amino-2-[6-chloro-1-(3,3,4,4,4-penta-fluorobutyl)-1H-indazol-3-yl]-5-cyclopropyl-6-oxo-6,7-dihydro-5H-pyrrolo[2,3-d]pyrimidin-5-yl}phenyl)propanoic acid] | 88.8% | 353 nM | 0.864 nM | 
CC(C)(Cc1coc(C2(C3CC3)C(=O)Nc3nc(-c4nn(Cc5ccccc5F)c5cc(Cl)ccc45)nc(N)c32)n1)C(=O)O (centres unmarked) [Example 138B, 3-(2-{4-amino-2-[6-chloro-1-(2-fluorobenzyl)-1H-indazol-3-yl]-5-cyclopropyl-6-oxo-6,7-dihydro-5H-pyrrolo[2,3-d]pyrimidin-5-yl}-1,3-oxazol-4-yl)-2,2-dimethylpropanoic acid] | 114% | 375 nM | 0.058 nM | 
CC(C)(Cn1cc(C2(C)C(=O)Nc3nc(-c4nn(Cc5ccccc5F)c5cc(Cl)ccc45)nc(N)c32)cn1)C(=O)O (centres unmarked) [Example 171A, 3-(4-{4-amino-2-[6-chloro-1-(2-fluorobenzyl)-1H-indazol-3-yl]-5-methyl-6-oxo-6,7-dihydro-5H-pyrrolo[2,3-d]pyrimidin-5-yl}-1H-pyrazol-1-yl)-2,2-dimethyl-propanoic acid] | 135% | 1220 nM | 0.094 nM | 
CC1(c2ccc(CC(=O)O)cc2)C(=O)Nc2nc(-c3nn(Cc4ccccc4F)c4ncccc34)nc(N)c21 (centres unmarked) [Example 114A, (4-{4-Amino-2-[1-(2-fluorobenzyl)-1H-pyrazolo[3,4-b]pyridin-3-yl]-5-methyl-6-oxo-6,7-dihydro-5H-pyrrolo[2,3-d]pyrimidin-5-yl}phenyl)acetic acid] | 108% | 1340 nM | 0.092 nM | 
C[C@@]1(c2ccc(CCC(=O)O)cc2)C(=O)Nc2nc(-c3nn(Cc4ncccc4F)c4cc(Cl)ccc34)nc(N)c21 (single isomer, unassigned) [Example 57B] | 104% | 1080 nM | 0.096 nM | 
CC1CCC(Cn2nc(-c3nc(N)c4c(n3)NC(=O)C4(C)c3nc(CC(C)(C)C(=O)O)co3)c3cccnc32)CC1 (single isomer, unassigned) [Example 126AB, 3-{2-[4-amino-5-methyl-2-{1-[4-methylcyclohexylmethyl]-1H-pyrazolo[3,4-b]pyridin-3-yl}-6-oxo-6,7-dihydro-5H-pyrrolo[2,3-d]pyrimidin-5-yl]-1,3-oxazol-4-yl}-2,2-dimethylpropanoic acid] |  | 199 nM | 0.077 nM | 109.2%
CC(C)(Cc1coc(C2(C)C(=O)Nc3nc(-c4nn(CC5CCCCO5)c5cc(F)ccc45)nc(N)c32)n1)C(=O)O (single isomer, unassigned) [Example 134AA, 3-{2-[4-amino-2-{6-fluoro-1-[tetrahydro-2H-pyran-2-ylmethyl]-1H-indazol-3-yl}-5-methyl-6-oxo-6,7-dihydro-5H-pyrrolo[2,3-d]pyrimidin-5-yl]-1,3-oxazol-4-yl}-2,2-dimethylpropanoic acid] | 104% | 807 nM | 0.32 nM | 

Second part, the molecule after the results:

Emax (sGC α1/β1 heterodimer) | EC50 (sGC α1/β1 heterodimer) | Ki [1] | % Activation (sGC α1/β1 heterodimer; activity expressed as percentage of compound A (standard)) | Structure (SMILES)
120% | 49 nM | 0.031 nM |  | CC(C)(Cc1csc([C@]2(C)C(=O)Nc3nc(-c4nn(Cc5c(F)ccc(F)c5F)c5cc(Cl)ccc45)nc(N)c32)n1)C(=O)O [Example 190A, (S)-3-(2-{4-amino-2-[6-chloro-1-(2,3,6-trifluoro-benzyl)-1H-indazol-3-yl]-5-methyl-6-oxo-6,7-dihydro-5H-pyrrolo[2,3-d]pyrimidin-5-yl}-1,3-thiazol-4-yl)-2,2-dimethyl-propanoic acid]
98.5% | 2620 nM | 0.068 nM |  | CC1(c2cccc(-c3nn[nH]n3)c2)C(=O)Nc2nc(-c3nn(Cc4ccccc4F)c4cc(F)ccc34)nc(N)c21 (centres unmarked) [Example 249B, 4-Amino-2-[6-fluoro-1-(2-fluorobenzyl)-1H-indazol-3-yl]-5-methyl-5-[3-(1H-tetrazol-5-yl)phenyl]-5,7-dihydro-6H-pyrrolo[2,3-d]pyrimidin-6-one]
 | 293 nM | 0.074 nM |  | CC1(N2CCC(CCC(=O)O)C2)C(=O)Nc2nc(-c3nn(Cc4ccccc4F)c4cc(Cl)ccc34)nc(N)c21 (single isomer, unassigned) [Example 261C, 3-[1-{4-Amino-2-[6-chloro-1-(2-fluorobenzyl)-1H-indazol-3-yl]-5-methyl-6-oxo-6,7-dihydro-5H-pyrrolo[2,3-d]pyrimidin-5-yl}pyrrolidin-3-yl]propanoic acid]
100% | 1760 nM | 0.095 nM |  | CC(C)(CCc1coc(C2(C)C(=O)Nc3nc(-c4nn(Cc5ncccc5F)c5cc(Cl)ccc45)nc(N)c32)n1)C(=O)O (centres unmarked) [Example 207B, 4-{2-[4-amino-2-{6-chloro-1-[(3-fluoropyridin-2-yl)methyl]-1H-indazol-3-yl}-5-methyl-6-oxo-6,7-dihydro-5H-pyrrolo[2,3-d]pyrimidin-5-yl]-1,3-oxazol-4-yl}-2,2-dimethyl-butanoic acid]
116% | 560 nM | 0.111 nM |  | C[C@@]1(c2ccc(CCC(=O)NS(C)(=O)=O)cc2)C(=O)Nc2nc(-c3nn(Cc4ccccc4F)c4cc(Cl)ccc34)nc(N)c21 [Example 259B, (S)-3-(4-{4-Amino-2-[6-chloro-1-(2-fluorobenzyl)-1H-indazol-3-yl]-5-methyl-6-oxo-6,7-dihydro-5H-pyrrolo[2,3-d]pyrimidin-5-yl}phenyl)-N-(methylsulfonyl)propanamide]
89.1% | 4150 nM | 0.085 nM |  | C[C@@]1(c2ccc(CCC(=O)O)cc2)C(=O)Nc2nc(-c3nn(Cc4ncccc4F)c4ccccc34)nc(N)c21 [Example 232B, (S)-3-{4-[4-amino-2-{1-[(3-fluoropyridin-2-yl)methyl]-1H-indazol-3-yl}-5-methyl-6-oxo-6,7-dihydro-5H-pyrrolo[2,3-d]pyrimidin-5-yl]phenyl}propanoic acid]
